# Activity calls are given as the source filed them. The rule behind the calls is not given here.
# Experiments:
# [1] = biological target: T1, ATP-dependent translocase ABCB1 (Homo sapiens, UniProt P08183); assay: Inhibition of P-glycoprotein overexpressed in human MCF7/ADR cells assessed as increase in doxorubicin accumulation at 25 uM incubated for 1.5 hrs prior to doxorubicin treatment measured after 1.5 hrs by HPLC analysis; format: cell-based; details: nci/adr-res
# HepG2 = assay: Antiproliferative activity against human HepG2 cells after 48 hrs by MTT assay; format: functional, cell-based; details: HepG2, 48 h
# [2] = biological target: T1, ATP-dependent translocase ABCB1; assay: Inhibition of P-glycoprotein in human MCF7/ADR cells assessed as potentiation of doxorubicin antiproliferative activity after 48 hrs by MTT assay; format: cell-based; details: nci/adr-res
# [3] = biological target: T1, ATP-dependent translocase ABCB1; assay: Inhibition of P-glycoprotein in human MCF7 assessed as increase in doxorubicin accumulation at 25 uM incubated for 1.5 hrs prior to doxorubicin treatment measured after 1.5 hrs by HPLC analysis; details: mcf7, 1.5 h
# NCI/ADR-RES [4] = assay: Induction of nitric oxide release in human MCF7/ADR cells at 25 uM by Griess method; format: functional, cell-based
# [5] = biological target: T1, ATP-dependent translocase ABCB1; assay: Inhibition of P-glycoprotein overexpressed in human MCF7/ADR cells assessed as increase in doxorubicin accumulation at 25 uM incubated for 1.5 hrs prior to doxorubicin treatment measured after 1.5 hrs by HPLC analysis in presence of hemoglobin; format: cell-based; details: nci/adr-res
# [6] = biological target: T1, ATP-dependent translocase ABCB1; assay: Inhibition of P-glycoprotein in human MCF7 assessed as increase in doxorubicin accumulation at 25 uM incubated for 1.5 hrs prior to doxorubicin treatment measured after 1.5 hrs by HPLC analysis in presence of hemoglobin; details: mcf7, 1.5 h
# [7] = biological target: T1, ATP-dependent translocase ABCB1; assay: Inhibition of P-glycoprotein overexpressed in human Caco2 cells assessed as increase in digoxin accumulation at 5 to 25 uM incubated for 1.5 hrs prior to digoxin treatment measured after 1.5 hrs by LC/MS/MS analysis in presence of hemoglobin; format: cell-based; details: caco-2, 1.5 h
# [8] = biological target: T1, ATP-dependent translocase ABCB1; assay: Inhibition of P-glycoprotein overexpressed in human Caco2 cells assessed as increase in digoxin permeability at 25 uM incubated for 90 mins prior to digoxin treatment measured after 90 mins by LC/MS/MS analysis; format: cell-based; details: caco-2, 1.5 h
# [9] = biological target: T1, ATP-dependent translocase ABCB1; assay: Inhibition of P-glycoprotein overexpressed in human Caco2 cells assessed as decrease in digoxin efflux at 25 uM incubated for 90 mins prior to digoxin treatment measured after 90 mins by LC/MS/MS analysis; format: cell-based; details: caco-2, 1.5 h
# [10] = Downregulation of doxorubicin-induced P-glycoprotein expression in human MCF7/ADR cells at 25 uM after 48 hrs by Western blot analysis; format: functional, cell-based; details: NCI/ADR-RES
# MCF7 = assay: Antiproliferative activity against human MCF7 up to 25 uM cells after 48 hrs by MTT assay; format: functional, cell-based
# NCI/ADR-RES [11] = assay: Antiproliferative activity against human MCF7/ADR up to 25 uM cells after 48 hrs by MTT assay; format: functional, cell-based
# T1 sequence (P08183 whole entry): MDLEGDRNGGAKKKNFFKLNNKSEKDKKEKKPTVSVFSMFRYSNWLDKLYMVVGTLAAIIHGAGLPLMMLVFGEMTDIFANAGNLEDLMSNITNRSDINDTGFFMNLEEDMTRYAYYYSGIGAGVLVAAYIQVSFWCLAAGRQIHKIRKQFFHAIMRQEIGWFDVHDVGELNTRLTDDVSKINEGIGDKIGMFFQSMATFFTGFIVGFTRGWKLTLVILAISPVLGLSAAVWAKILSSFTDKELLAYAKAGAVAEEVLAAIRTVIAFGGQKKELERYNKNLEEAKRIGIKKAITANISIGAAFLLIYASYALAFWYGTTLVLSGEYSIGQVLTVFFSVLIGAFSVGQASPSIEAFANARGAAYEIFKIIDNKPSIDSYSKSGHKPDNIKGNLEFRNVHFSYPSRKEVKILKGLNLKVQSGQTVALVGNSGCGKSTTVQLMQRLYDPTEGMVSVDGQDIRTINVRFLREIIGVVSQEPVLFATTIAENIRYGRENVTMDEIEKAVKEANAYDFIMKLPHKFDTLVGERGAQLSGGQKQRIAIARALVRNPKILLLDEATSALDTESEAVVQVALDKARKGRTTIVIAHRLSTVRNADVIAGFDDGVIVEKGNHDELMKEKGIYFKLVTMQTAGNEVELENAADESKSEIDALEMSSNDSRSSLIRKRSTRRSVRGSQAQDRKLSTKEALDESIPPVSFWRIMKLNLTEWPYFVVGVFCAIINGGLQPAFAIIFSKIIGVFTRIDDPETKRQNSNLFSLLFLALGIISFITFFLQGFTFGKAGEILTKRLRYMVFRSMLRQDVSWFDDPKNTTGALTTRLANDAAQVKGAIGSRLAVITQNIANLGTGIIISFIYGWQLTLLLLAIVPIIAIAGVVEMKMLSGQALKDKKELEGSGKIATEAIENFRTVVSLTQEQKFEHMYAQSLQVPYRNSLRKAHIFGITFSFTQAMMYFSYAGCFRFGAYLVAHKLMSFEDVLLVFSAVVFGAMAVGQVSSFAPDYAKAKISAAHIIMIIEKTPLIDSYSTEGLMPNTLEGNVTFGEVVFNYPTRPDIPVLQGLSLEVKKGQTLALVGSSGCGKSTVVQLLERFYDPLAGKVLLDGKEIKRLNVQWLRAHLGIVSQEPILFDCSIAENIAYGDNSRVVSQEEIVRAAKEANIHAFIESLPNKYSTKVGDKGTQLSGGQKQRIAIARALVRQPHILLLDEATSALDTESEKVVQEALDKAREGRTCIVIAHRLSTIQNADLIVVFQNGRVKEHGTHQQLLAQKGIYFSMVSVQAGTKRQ
smiles,measurement,setting,value
C[C@H](N)C(=O)OCCOCCOc1no[n+]([O-])c1S(=O)(=O)c1ccccc1,inhibition (INH),[1],Active
COC(=O)c1cc(OC)c2c(c1-c1c(C(=O)NCCC(=O)OCCOc3no[n+]([O-])c3S(=O)(=O)c3ccccc3)cc(OC)c3c1OCO3)OCO2,IC50,HepG2,1.35 µM
COC(=O)c1cc(OC)c2c(c1-c1c(C(=O)NCCC(=O)NCCOc3no[n+]([O-])c3S(=O)(=O)c3ccccc3)cc(OC)c3c1OCO3)OCO2,IC50,HepG2,1.25 µM
COC(=O)c1cc(OC)c2c(c1-c1c(C(=O)N[C@@H](C)C(=O)OCCOCCOc3no[n+]([O-])c3S(=O)(=O)c3ccccc3)cc(OC)c3c1OCO3)OCO2,IC50,HepG2,1.49 µM
same,inhibition (INH),[2],Dose-dependent effect
same,inhibition (INH),[1],Active
same,inhibition (INH),[3],Not Active
same,Activity,NCI/ADR-RES [4],Active
same,inhibition (INH),[5],Not Active
same,inhibition (INH),[6],Not Active
same,inhibition (INH),[7],Not Active
same,inhibition (INH),[8],Active
same,inhibition (INH),[9],Active
same,Activity,[10],Active
same,Activity,MCF7,inactive
same,Activity,NCI/ADR-RES [11],inactive
C[C@H](N)C(=O)OCCCCOc1no[n+]([O-])c1S(=O)(=O)c1ccccc1,inhibition (INH),[1],Active
COC(=O)c1cc(OC)c2c(c1-c1c(C(=O)NCCC(=O)OCCCCOc3no[n+]([O-])c3S(=O)(=O)c3ccccc3)cc(OC)c3c1OCO3)OCO2,IC50,HepG2,1.36 µM
COC(=O)c1cc(OC)c2c(c1-c1c(C(=O)NCCC(=O)OC(C)(C)CCOc3no[n+]([O-])c3S(=O)(=O)c3ccccc3)cc(OC)c3c1OCO3)OCO2,IC50,HepG2,1.36 µM
COC(=O)c1cc(OC)c2c(c1-c1c(C(=O)NCCC(=O)OCCCOc3no[n+]([O-])c3S(=O)(=O)c3ccccc3)cc(OC)c3c1OCO3)OCO2,IC50,HepG2,1.14 µM
O=c1[nH]cc(F)c(=O)[nH]1 [FLUOROURACIL],IC50,HepG2,15.9 µM
COC(=O)c1cc(OC)c2c(c1-c1c(C(=O)NCCC(=O)OCCOCCOc3no[n+]([O-])c3S(=O)(=O)c3ccccc3)cc(OC)c3c1OCO3)OCO2,IC50,HepG2,1.88 µM
COC(=O)c1cc(OC)c2c(c1-c1c(C(=O)N[C@@H](C)C(=O)OCCCOc3no[n+]([O-])c3S(=O)(=O)c3ccccc3)cc(OC)c3c1OCO3)OCO2,IC50,HepG2,1.25 µM
COC(=O)c1cc(OC)c2c(c1-c1c(C(=O)NCCC(=O)OC(C)CCOc3no[n+]([O-])c3S(=O)(=O)c3ccccc3)cc(OC)c3c1OCO3)OCO2 (configuration not stated),IC50,HepG2,1.15 µM
COC(=O)c1cc(OC)c2c(c1-c1c(C(=O)N[C@@H](C)C(=O)OCCCCOc3no[n+]([O-])c3S(=O)(=O)c3ccccc3)cc(OC)c3c1OCO3)OCO2,IC50,HepG2,1.21 µM
same,inhibition (INH),[2],Dose-dependent effect
same,inhibition (INH),[1],Active
same,inhibition (INH),[3],Not Active
same,Activity,NCI/ADR-RES [4],Active
same,inhibition (INH),[5],Not Active
same,inhibition (INH),[6],Not Active
same,inhibition (INH),[7],Not Active
same,inhibition (INH),[8],Active
same,inhibition (INH),[9],Active
same,Activity,[10],Active
same,Activity,MCF7,inactive
same,Activity,NCI/ADR-RES [11],inactive
